Measurements published in PMC6661780, “Design, synthesis, antiviral bioactivities and interaction mechanisms of penta-1,4-diene-3-one oxime ether derivatives containing a quinazolin-4(3H)-one scaffold” (BMC Chemistry, 2019).

Biological target: T1, TMV CP (TMV coat protein) (Tobacco mosaic virus (vulgare), UniProt P69687)
T1 construct: NT-647 dye labelled for MST
Test: microscale thermophoresis (Monolith NT.[…], NT-647-labelled protein)
Format: binding

T1 sequence (P69687 2-159 limits assumed): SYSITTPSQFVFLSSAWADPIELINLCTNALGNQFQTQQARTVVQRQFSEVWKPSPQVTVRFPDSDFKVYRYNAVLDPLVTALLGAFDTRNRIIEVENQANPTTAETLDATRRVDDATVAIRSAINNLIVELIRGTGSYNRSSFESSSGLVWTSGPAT

`O=c1c2ccccc2ncn1CO/N=C(\C=C\c1ccccn1)/C=C/c1ccccc1OCc1ccc(Cl)cc1Cl` [8k] gave a Kd of 970 ± 690 nM.
